In US8901038B2, “Biphenyl-substituted cyclic ketoenols” (Bayer CropScience AG, priority 2010, dated 2014):

Experiments:
Assay type in all cases: in vivo
[1] = test system: green peach aphid (Myzus persicae); experiment: Myzus test (MYZUPE spray treatment); conditions: Chinese cabbage leaf discs sprayed, after 6 days
Procedure: Myzus Test (MYZUPE Spray Treatment)
• Solvents: 78 parts by weight of acetone • 1.5 parts by weight of dimethylformamide • Emulsifier: 0.5 part by weight of alkylaryl polyglycol ether
To produce a suitable preparation of active compound, 1 part by weight of active compound is mixed with the stated amounts of solvent and emulsifier, and the concentrate is diluted with emulsifier-containing water to the desired concentration. Discs of Chinese cabbage (Brassica pekinensis) which are infested by all stages of the green peach aphid (Myzus persicae) are sprayed with an active compound preparation of the desired concentration. After 6 days, the effect in % is determined. 100% means that all aphids have been killed; 0% means that none of the aphids have been killed.

[2] = test system: greenhouse red spider mite (Tetranychus urticae); experiment: Tetranychus test; OP-resistant (TETRUR spray treatment); conditions: application rate 100 g/ha; bean leaf discs sprayed; after 6 days
Procedure: Tetranychus Test; OP-Resistant (TETRUR Spray Treatment)
(§1) • Solvents: 78.0 parts by weight of acetone • 1.5 parts by weight of dimethylformamide • Emulsifier: 0.5 part by weight of alkylaryl polyglycol ether
To produce a suitable preparation of active compound, 1 part by weight of active compound is mixed with the stated amounts of solvent and emulsifier, and the concentrate is diluted with emulsifier-containing water to the desired concentration. Discs of bean leaves (Phaseolus vulgaris), which are infested by all stages of the greenhouse red spider mite (Tetranychus urticae) are sprayed with an active compound preparation of the desired concentration.
After 6 days, the effect in % is determined. 100% means that all spider mites have been killed; 0% means that none of the spider mites have been killed.

[3] = test system: larvae of the mustard beetle (Phaedon cochleariae); experiment: Phaedon test (PHAECO spray treatment); conditions: application rate 500 g/ha; Chinese cabbage leaf discs sprayed; after 7 days
Procedure: Phaedon Test (PHAECO Spray Treatment)
as §1
To produce a suitable preparation of active compound, one part by weight of active compound is mixed with the stated amounts of solvents and emulsifier, and the concentrate is diluted with emulsifier-containing water to the desired concentration. […].
After 7 days, the effect in % is determined. 100% means that all beetle larvae have been killed; 0% means that none of the beetle larvae have been killed.

[4] = test system: caterpillars of the armyworm (Spodoptera frugiperda); experiment: Spodoptera frugiperda test (SPODFR spray treatment); conditions: application rate 500 g/ha; maize leaf discs sprayed; after 7 days
Procedure: Spodoptera frugiperda Test (SPODFR Spray Treatment)
as §1
To produce a suitable preparation of active compound, 1 part by weight of active compound is mixed with the stated amounts of solvent and emulsifier, and the concentrate is diluted with emulsified water to the desired concentration. Discs of maize leaves (Zea mays) are sprayed with an active compound preparation of the desired concentration and, after drying, populated with caterpillars of the armyworm (Spodoptera frugiperda).
After 7 days, the effect in % is determined. 100% means that all caterpillars have been killed; 0% means that none of the caterpillars have been killed.

[5] = test system: Boophilus microplus; experiment: Boophilus microplus test (BOOPMI injection); conditions: application rate 20 μg/animal; injection into the abdomen; after 7 days
Procedure: Boophilus microplus Test (BOOPMI Injection)
• Solvent: Dimethyl sulphoxide
To produce a suitable preparation of active compound, 10 mg of active compound are mixed with 0.5 ml of solvent and the concentrate is diluted with solvent to the desired concentration. The solution of active compound is injected into the abdomen (Boophilus microplus) and the animals are transferred into dishes and stored in a climatized room. The efficacy is monitored for deposition of fertile eggs.
After 7 days, the effect in % is determined. 100% means that none of the ticks has laid any fertile eggs.

Compound | efficacy (aphids killed) ([1]; application rate 500 g/ha) [%] | efficacy (spider mites killed) [2] [%] | efficacy (beetle larvae killed) [3] [%] | efficacy (caterpillars killed) [4] [%] | efficacy (deposition of fertile eggs) [5] [%] | efficacy (aphids killed) ([1]; application rate 100 g/ha) [%]
CCOC(=O)OC1=C(c2c(CC)ccc(-c3ccc(F)cc3)c2C)C(=O)NC12CCC(OC)CC2 (single isomer, unassigned) [Example I-1-c-3] | 100 | 90 |  |  |  | 
CCc1ccc(-c2ccc(Cl)cc2)c(C)c1C1=C(O)C2(CCC(OC)CC2)OC1=O (single isomer, unassigned) [Example I-2-a-5] | 90 |  | 100 |  |  | 
CCc1ccc(-c2ccc(Cl)cc2)c(C)c1C1=C(O)C2(CCC(OC)CC2)OC1=O (single isomer, unassigned) [Example I-2-a-6] | 100 | 100 | 100 |  |  | 
CCc1ccc(-c2ccc(Cl)cc2)c(CC)c1C1=C(O)C2(CCOCC2)NC1=O [Example I-1-a-1] | 100 | 80 | 100 |  |  | 
CCc1ccc(-c2ccc(Cl)cc2)c(C)c1C1=C(O)C2(CCOCC2)NC1=O [Example I-1-a-3] | 100 | 90 | 100 | 80 | 80 | 
CCc1ccc(-c2ccc(F)cc2)c(C)c1C1=C(O)C2(CCC(OC)CC2)NC1=O (stereo not shown) [Example I-1-a-4] | 90 | 100 | 83 |  |  | 
CCc1ccc(-c2ccc(F)cc2)c(C)c1C1=C(O)C2(CCOCC2)NC1=O [Example I-1-a-5] | 100 | 90 |  |  |  | 
O=C1NC2(CCOCC2)C(O)=C1c1c(Cl)ccc(-c2ccc(F)cc2)c1Cl [Example I-1-a-6] | 100 | 100 |  |  | 90 | 
CCc1cc(C)c(-c2ccc(Cl)cc2)c(C)c1C1=C(O)C2(CCC(OC)CC2)NC1=O (stereo not shown) [Example I-1-a-7] |  | 90 | 100 |  |  | 90
CCc1cc(C)c(-c2ccc(Cl)cc2)c(C)c1C1=C(O)C2(CCOCC2)NC1=O [Example I-1-a-8] | 100 | 90 | 100 |  |  | 
CCc1c(-c2ccc(F)cc2)ccc(C)c1C1=C(O)C2(CCC(OC)CC2)NC1=O (stereo not shown) [Example I-1-a-9] | 90 | 70 | 83 |  | 100 | 
CCc1c(-c2ccc(Cl)cc2)ccc(C)c1C1=C(O)C2(CCC(OC)CC2)NC1=O (stereo not shown) [Example I-1-a-16] | 100 | 90 |  | 100 |  | 
CCc1c(-c2ccc(Cl)cc2)ccc(C)c1C1=C(O)C2(CCOCC2)NC1=O [Example I-1-a-17] | 100 | 100 |  |  |  | 
CCc1ccc(-c2ccc(F)cc2)c(CC)c1C1=C(O)C2(CCC(OC)CC2)NC1=O (stereo not shown) [Example I-1-a-18] | 100 | 100 |  |  |  | 
CCc1ccc(-c2ccc(Cl)cc2)c(CC)c1C1=C(O)C2(CCC(OC)CC2)NC1=O (stereo not shown) [Example I-1-a-19] |  | 90 | 100 |  |  | 
CCc1ccc(-c2ccc(F)cc2)c(CC)c1C1=C(O)C2(CCOCC2)NC1=O [Example I-1-a-20] | 100 | 100 |  |  |  | 
CCc1ccc(-c2ccc(Cl)cc2)c(C)c1C1=C(O)C2(CCC(OC)CC2)NC1=O (stereo not shown) [Example I-1-a-21] | 100 | 100 |  |  |  | 
CCON1CCC2(CC1)NC(=O)C(c1c(CC)ccc(-c3ccc(Cl)cc3)c1C)=C2O [Example I-1-a-22] | 100 | 90 | 100 |  |  | 
CCc1ccc(-c2ccc(Cl)cc2)c(C)c1C1=C(O)C2(CCN(OC)CC2)NC1=O [Example I-1-a-23] | 100 | 90 | 100 |  |  | 
CCc1ccc(-c2ccc(Cl)cc2)c(CC)c1C1=C(O)C2(CCN(OC)CC2)NC1=O [Example I-1-a-24] |  | 100 |  |  |  | 
CCc1ccc(-c2ccc(Cl)cc2)c(CC)c1C1=C(OC(=O)C(C)C)C2(CCOCC2)NC1=O [Example I-1-b-1] |  | 80 |  | 83 |  | 
CCc1c(-c2ccc(F)cc2)ccc(C)c1C1=C(OC(=O)C(C)C)C2(CCC(OC)CC2)NC1=O (stereo not shown) [Example I-1-b-2] | 90 |  |  |  |  | 
CCc1ccc(-c2ccc(F)cc2)c(C)c1C1=C(OC(=O)C(C)C)C2(CCC(OC)CC2)NC1=O (stereo not shown) [Example I-1-b-3] | 90 | 100 |  |  |  | 
CCc1ccc(-c2ccc(Cl)cc2)c(C)c1C1=C(OC(=O)C(C)C)C2(CCC(OC)CC2)NC1=O (stereo not shown) [Example I-1-b-4] | 100 | 90 |  | 100 |  | 
CCOC(=O)OC1=C(c2c(CC)ccc(-c3ccc(Cl)cc3)c2CC)C(=O)NC12CCOCC2 [Example I-1-c-1] | 90 |  |  |  |  | 
CCOC(=O)OC1=C(c2c(CC)ccc(-c3ccc(Cl)cc3)c2C)C(=O)NC12CCC(OC)CC2 (stereo not shown) [Example I-1-c-2] | 100 | 100 |  |  |  | 
CCc1ccc(-c2ccc(Cl)cc2)c(CC)c1C1=C(O)[C@]2(CC[C@H](OC)CC2)OC1=O [Example I-2-a-1] | 90 | 100 | 100 |  |  | 
CCc1ccc(-c2ccc(Cl)cc2)c(CC)c1C1=C(O)[C@]2(CC[C@@H](OC)CC2)OC1=O [Example I-2-a-2] | 90 |  |  |  |  | 
CCc1ccc(-c2ccc(Cl)cc2)c(CC)c1C1=C(O)C2(CCOCC2)OC1=O [Example I-2-a-3] | 90 | 100 |  |  |  | 
CCc1ccc(-c2ccc(Cl)cc2)c(C)c1C1=C(O)C2(CCOCC2)OC1=O [Example I-2-a-7] | 100 | 100 |  | 100 |  | 
